Results: patent US7396853B2, “2-phenyl-3,3,3-trifluoro-2-hydroxy-propionic acid derivatives” (Hoffmann-La Roche Inc., priority 2005, dated 2008)

Experiments:
[1] = target: T1, human GABABR1aR2a (Homo sapiens, UniProt O75899+Q9UBS5); test: Intracellular Ca2+ mobilization assay in CHO-GABABR1aR2a-Gα16 cell (enhancer concentration-response at 10 nM GABA); format: cell-based; details: for EC50: enhancer potency in presence of 10 nM GABA (EC10), CHO cells expressing human GABABR1aR2a and Gα16; for Emax: maximum enhancing effect in presence of 10 nM GABA (EC10), normalized to 10 μM GABA alone = 100%, 10 nM GABA alone = 0%, enhancer 0.001-30 μM applied 15 min before GABA
T1 construct: expressed in transfected cells
T1 sequence (Q9UBS5 15-961 limits assumed): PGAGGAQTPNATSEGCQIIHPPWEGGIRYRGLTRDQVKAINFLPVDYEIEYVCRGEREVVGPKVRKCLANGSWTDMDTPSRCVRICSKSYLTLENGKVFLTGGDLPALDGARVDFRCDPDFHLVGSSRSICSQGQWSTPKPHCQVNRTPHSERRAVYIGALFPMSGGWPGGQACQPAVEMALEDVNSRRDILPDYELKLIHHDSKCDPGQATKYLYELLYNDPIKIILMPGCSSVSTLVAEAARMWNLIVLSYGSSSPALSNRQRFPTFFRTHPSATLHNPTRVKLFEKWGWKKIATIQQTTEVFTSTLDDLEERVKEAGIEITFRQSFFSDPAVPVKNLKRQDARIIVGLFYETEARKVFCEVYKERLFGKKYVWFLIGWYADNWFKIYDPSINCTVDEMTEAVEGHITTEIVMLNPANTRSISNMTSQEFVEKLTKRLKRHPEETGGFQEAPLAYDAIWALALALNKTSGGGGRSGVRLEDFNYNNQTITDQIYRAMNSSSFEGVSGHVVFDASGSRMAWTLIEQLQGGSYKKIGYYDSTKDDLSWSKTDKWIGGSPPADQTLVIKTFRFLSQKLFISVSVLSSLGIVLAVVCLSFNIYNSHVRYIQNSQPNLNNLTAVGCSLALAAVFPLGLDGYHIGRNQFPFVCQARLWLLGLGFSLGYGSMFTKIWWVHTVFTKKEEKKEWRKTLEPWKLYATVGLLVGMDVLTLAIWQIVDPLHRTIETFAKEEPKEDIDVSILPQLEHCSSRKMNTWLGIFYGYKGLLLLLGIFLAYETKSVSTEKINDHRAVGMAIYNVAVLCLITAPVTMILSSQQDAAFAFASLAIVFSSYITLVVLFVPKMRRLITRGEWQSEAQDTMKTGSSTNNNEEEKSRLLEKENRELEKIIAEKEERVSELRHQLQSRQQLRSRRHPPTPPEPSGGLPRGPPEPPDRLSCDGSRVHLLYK
T1 sequence (O75899 42-941): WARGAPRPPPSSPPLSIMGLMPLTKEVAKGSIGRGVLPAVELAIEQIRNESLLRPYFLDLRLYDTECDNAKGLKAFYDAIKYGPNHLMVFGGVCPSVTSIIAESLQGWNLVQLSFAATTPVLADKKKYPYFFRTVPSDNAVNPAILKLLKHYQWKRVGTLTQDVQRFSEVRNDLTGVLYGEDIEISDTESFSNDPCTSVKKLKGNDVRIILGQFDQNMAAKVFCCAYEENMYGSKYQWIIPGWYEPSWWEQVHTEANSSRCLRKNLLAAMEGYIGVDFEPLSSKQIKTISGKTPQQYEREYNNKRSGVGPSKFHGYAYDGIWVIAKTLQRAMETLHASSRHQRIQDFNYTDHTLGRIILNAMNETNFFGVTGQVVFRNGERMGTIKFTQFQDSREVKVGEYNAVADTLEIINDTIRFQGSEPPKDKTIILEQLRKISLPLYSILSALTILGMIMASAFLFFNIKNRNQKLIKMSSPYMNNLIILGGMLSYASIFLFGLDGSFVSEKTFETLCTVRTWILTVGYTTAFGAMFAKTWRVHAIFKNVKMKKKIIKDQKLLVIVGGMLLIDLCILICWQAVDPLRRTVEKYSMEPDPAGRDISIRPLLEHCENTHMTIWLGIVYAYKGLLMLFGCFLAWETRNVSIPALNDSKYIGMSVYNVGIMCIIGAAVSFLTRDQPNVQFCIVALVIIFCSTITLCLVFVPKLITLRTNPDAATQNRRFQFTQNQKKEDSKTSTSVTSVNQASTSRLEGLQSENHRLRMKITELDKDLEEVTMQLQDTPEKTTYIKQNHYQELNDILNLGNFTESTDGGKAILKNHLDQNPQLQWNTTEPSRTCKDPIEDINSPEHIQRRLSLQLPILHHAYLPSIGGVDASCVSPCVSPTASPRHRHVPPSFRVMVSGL
Method: (§1) Intracellular Ca^2+ Mobilization Assay
(§2) The Chinese Hamster Ovary (CHO) cells stably expressing human GABABR1aR2a and Gα16 were seeded at 5×10^4 cells/well in the poly-D-lysine treated, 96-well, black/clear-bottomed plates (BD Biosciences, Palo Alto, Calif.). […] Probenecid (250 mM) (catalog No. P8761) was from Sigma, Buchs, Switzerland. […] The enhancers were applied 15 min before the application of the GABA. For GABA shift assay, concentration-response curves of GABA (0.0003-30 μM) were determined in the absence and presence of 10 μM enhancer. […] Responses were measured as peak increase in fluorescence minus basal, normalized to the maximal stimulatory effect induced by 10 μM GABA alone (considered 100%) and 10 nM GABA alone (considered 0%).

[2] = target: T1, human GABABR1aR2a; test: GABA shift assay (GABA concentration-response with and without 10 μM enhancer, FLIPR Ca2+ mobilization in CHO-GABABR1aR2a-Gα16 cell); format: cell-based; details: GABA 0.0003-30 μM, log ratio
Method: as §1, §2

Structure (SMILES) | EC50 [1] | Emax [1] | GABA shift Log [EC50 (GABA + 10 μM cp)/EC50 (GABA alone)] [2]
CC(C)(C)c1cc(C(C)(C)C)c(O)c(C(O)(C(=O)O)C(F)(F)F)c1 (racemic) [Example 3, (R,S)-2-(3,5-Di-tert-butyl-2-hydroxy-phenyl)-3,3,3-trifluoro-2-hydroxy-propionic acid] | 0.32 µM | 70% | −1
COC(=O)C(O)(c1cc(C(C)(C)C)cc(C(C)(C)C)c1)C(F)(F)F (racemic) [Example 7, (R,S)-2-(3,5-Di-tert-butyl-phenyl)-3,3,3-trifluoro-2-hydroxy-propionic acid methyl ester] | 2.1 µM | 66% | −0.9
Cc1cc(C(C)(C)C)c2c(c1)C(O)(C(F)(F)F)C(=O)O2 (racemic) [Example 9, (R,S)-7-tert-Butyl-3-hydroxy-5-methyl-3-trifluoromethyl-3H-benzofuran-2-one] | 0.36 µM | 62% | −1.3
